Assay results published in patent US20160061841A1, “NRF2-BASED CANCER TREATMENT AND DETECTION METHODS AND USES” (CanBas Co., Ltd., priority 2014, published 2016).
“Also recorded” adds a separate entry of the source. Where no end group is shown, it is not given here. [ ]: non-standard residue; d: D form. dPhe(F5) = N[C@H](Cc1c(F)c(F)c(F)c(F)c1F)C(=O)O; dBpa = N[C@H](Cc1ccc(C(=O)c2ccccc2)cc1)C(=O)O; dCha = N[C@H](CC1CCCCC1)C(=O)O

How the values were obtained:
[1] = system: H1437 Control (Ctrl)-shRNA and Nrf2-shRNA sub-lines; test: Cell cycle distribution after CDDP with or without CBP501 in H1437 Ctrl-shRNA and Nrf2-shRNA sub-lines; assay type: cell-based, Human; conditions: one hour treatment with CDDP with or without CBP501
Description: Cell cycle distribution changes are detected by Flow-cytometry (n=4). The graphs at the left are from the sub-line established by introducing Control (Ctrl)-shRNA into the H1437. The graphs at the right are from the sub-line established by indtroducing Nrf2-shRNA into H1437. Upper graphs indicate the subGl population. Lower graphs indicate the G2-M population. An asterisk indicates statistical significance (TTEST; p<0.001). N.S.=not significant (p>0.01).
(§1) Cell cycle analysis. Cells were plated in 24-well plates and incubated for 24 hours. The cells were treated with or without CDDP plus or minus CBP501 at the indicated concentration for the indicated times. The cells were harvested and stained with Krishan's solution (0.1% sodium citrate, 50 μg/ml propidium iodide, 20 μg/ml RNase A, 0.5% NP-40). Stained cells were analyzed by FACSCalibur (Becton Dickinson, Franklin Lakes, N.J.) using CELLQuest software (Becton Dickinson).
Lentivirus infection. […] Lentivirus infection was performed according to manufacturer's instructions.
The effect of Nrf2 knock-down in the CBP501 insensitive cell line H1437 was investigated.

[2] = system: platinum-resistant ovarian carcinoma and MPM; conditions: cited from earlier work
cancer cells [3] = conditions: cited from earlier work
[4] = system: multiple kinases that phosphorylate CDC25C at Ser216; conditions: cited from earlier work
14-3-3 protein = conditions: cited from earlier work
calmodulin = calmodulin (Homo sapiens, UniProt P0DP23); conditions: cited from earlier work
NCI-H2030 = test: CDDP-enhancing activity of CBP501, cell cycle distribution by flow-cytometry; assay type: cell-based, Human; conditions: 1 h co-exposure with CDDP, shift of subG1 or G2/M dose-response curve
Description: (§2) Cell culture and reagents. Human NSCLC cell lines were cultured in a variety of media, each supplemented with 10% fetal bovine serum (Invitrogen, San Diego, CA) at 37° C. with 5% CO2/air. The media used was RPMI1640 (Sigma-Aldrich, St. Louis, Mo.) for NCI-H1755, NCI-H2030, NCI-H1437, NCI-H2122, NCI-H2172, NCI-H2228, NCI-H1563, NCI-H1944, NCI-H1993, NCI-H1734, NCI-H1568, NCI-H2444, NCI-H2291, NCI-H2347, NCI-H1838, NCI-H1299, HCC827, NCI-H1975, NCI-H1155, NCI-H522 and NCI-H1703; RPMI1640 supplemented with 2mM L-glutamine (Invitrogen) for NCI-H727; RPMI1640 supplemented with 4.5 g/L D-glucose (Sigma-Aldrich), 10 mM HEPES (Sigma-Aldrich) and 1 mM sodium pyruvate (Sigma-Aldrich) for NCI-H358, NCI-H520, NCI-H23, NCI-H647 and NCI-H838; Ham's F12K (Sigma-Aldrich) for A549. CDDP was purchased from Sigma-Aldrich. Sulforaphane (SFN) was purchased from Sigma-Aldrich. All NSCLC cell lines were purchased from ATCC and STR analysis had been performed by ATCC to authenticate the identity of each cell line. All cell lines were used within three months after thawing.
as §1
(§3) Here, the change in the cell cycle distribution, as indicated by flow-cytometry, was used to estimate the sensitivity of NSCLC cell lines to CBP501-enhanced cytotoxicity to CDDP. Such changes were monitored in cells treated with CDDP in the presence or absence of CBP501. The utility of this analysis for assessing the effectiveness of anti-cancer therapy is based on the absence of functioning G1/S checkpoint regulation in the cell cycle of many types of cancer cells (14). Lack of a functional G1/S checkpoint leads to an accumulation of cancer cells in G2/M phase upon their exposure to DNA-damaging anticancer agents (14, 15).
(§4) To assess the CDDP-enhancing activity of CBP501, one can examine either of two dose-response curves in which the X-axis indicates the dose of CDDP and Y-axis indicates either the number of cells in subG1 or in G2/M. The transition and peak in either dose-response curve will shift to the left in the presence of CBP501 for CBP501-sensitive cells, indicating the enhanced ability of CDDP to change the cell cycle distribution. […] Using this criterion based on CBP501's ability to shift the CDDP-induced subG1 or G2/M dose-response curve, twelve NSCLC cell lines were classified as being either, CBP501-sensitive or CBP501-insensitive. Cell lines that shifted the curve two fold or more were classified as CBP501 sensitive cells and those that shifted the curve less than two fold were classified as CBP501 insensitive (Table 1). Classification of CBP501 sensitivity in NSCLC cell lines.

NCI-H2444 = test: as above; assay type: cell-based, Human; conditions: 1 h co-exposure with CDDP
Description: as §2, §1, §3, §4

NCI-H2172 = test: as above; assay type: cell-based, Human; conditions: 1 h co-exposure with CDDP, shift of subG1 or G2/M dose-response curve
Description: as §2, §1, §3, §4

NCI-H1944 = test: as above; assay type: cell-based, Human; conditions: 1 h co-exposure with CDDP, shift of subG1 or G2/M dose-response curve
Description: as §2, §1, §3, §4

NCI-H2291 = test: as above; assay type: cell-based, Human; conditions: 1 h co-exposure with CDDP
Description: as §2, §1, §3, §4

NCI-H2347 = test: as above; assay type: cell-based, Human; conditions: 1 h co-exposure with CDDP
Description: as §2, §1, §3, §4

NCI-H2122 = test: as above; assay type: cell-based, Human; conditions: 1 h co-exposure with CDDP, shift of subG1 or G2/M dose-response curve
Description: as §2, §1, §3, §4

NCI-H2228 = test: as above; assay type: cell-based, Human; conditions: 1 h co-exposure with CDDP
Description: as §2, §1, §3, §4

NCI-H1568 = test: as above; assay type: cell-based, Human; conditions: 1 h co-exposure with CDDP
Description: as §2, §1, §3, §4

NCI-H838 = test: as above; assay type: cell-based, Human; conditions: 1 h co-exposure with CDDP; for Folds increase of CDDP effect by CBP501: shift of subG1 or G2/M dose-response curve
Description: as §2, §1, §3, §4

cancer cells [5] = conditions: shorter exposure and lower doses of CBP501 than required for G2 checkpoint abrogation; cited from earlier work
[6] = shift of subG1 or G2/M dose-response curve
[7] = NCI-H838 (Table 2, additional cell lines)

## (d-Bpa)(d-Ser)(d-Trp)(d-Ser)(d-Phe-2,3,4,5,6-F)(d-Cha)(d-Arg)(d-Arg)(d-Arg)(d-Gln)(d-Arg)(d-Arg) ([dBpa][dS][dW][dS][dPhe(F5)][dCha][dR][dR][dR][dQ][dR][dR]) [CBP501, anti-cancer drug candidate; calmodulin modulation and G2 checkpoint abrogation]
[1]; H1437 Nrf2 knock-down
  Effect of CBP501 on CDDP-induced changes in cell cycle distribution (subG1, G2-M): increase the effects of CDDP on changes in the cell cycle distribution of subG1 and G2-M; also recorded: increases CBP501 sensitivity
[1]; H1437 control shRNA
  Effect of CBP501 on CDDP-induced changes in cell cycle distribution (subG1, G2-M): no difference in CDDP activity with or without CBP501
[2]; MPM
  Primary endpoint for efficacy: primary endpoint for efficacy was achieved
[2]; combination of CDDP plus CBP501, patients with platinum-resistant ovarian carcinoma and MPM
  Clinical activity: showed evidence of clinical activity
Cancer cells [3]
  Phosphorylation of CDC25C at Ser216: attenuates phosphorylation of CDC25C at Ser216
Cancer cells [3]; lengthy combined exposure with CDDP or bleomycin (BLM)
  Accumulation of cancer cells at G2/M: reduces the accumulation of cancer cells at G2/M
[4]
  Inhibition of kinases that phosphorylate CDC25C at Ser216: inhibits multiple kinases that phosphorylate CDC25C at Ser216
14-3-3 protein
  Binding to 14-3-3 protein: binds directly to 14-3-3 protein
calmodulin
  Interaction with calmodulin: direct interaction
NCI-H2030
  Folds increase of CDDP effect by CBP501: 1 fold
NCI-H2444
  Definition of CBP501 sensitivity: Sensitive (Cell lines that shifted the curve two fold or more were classified as CBP501 sensitive cells)
NCI-H2444; [6]
  Folds increase of CDDP effect by CBP501: 2 fold
NCI-H2172
  Folds increase of CDDP effect by CBP501: 1.5 fold
NCI-H1944
  Folds increase of CDDP effect by CBP501: 1.5 fold
NCI-H2291
  Definition of CBP501 sensitivity: Sensitive (Cell lines that shifted the curve two fold or more were classified as CBP501 sensitive cells)
NCI-H2291; [6]
  Folds increase of CDDP effect by CBP501: 2 fold
NCI-H2347
  Definition of CBP501 sensitivity: Sensitive (Cell lines that shifted the curve two fold or more were classified as CBP501 sensitive cells)
NCI-H2347; [6]
  Folds increase of CDDP effect by CBP501: 4 fold
NCI-H2122
  Folds increase of CDDP effect by CBP501: 1 fold
NCI-H2228
  Definition of CBP501 sensitivity: Insensitive (those that shifted the curve less than two fold were classified as CBP501 insensitive)
NCI-H2228; [6]
  Folds increase of CDDP effect by CBP501: 1.5 fold
NCI-H1568
  Definition of CBP501 sensitivity: Sensitive (Cell lines that shifted the curve two fold or more were classified as CBP501 sensitive cells)
NCI-H1568; [6]
  Folds increase of CDDP effect by CBP501: 2 fold
NCI-H838; NCI-H838 (Table 1, initial twelve cell lines)
  Folds increase of CDDP effect by CBP501: 4 fold
NCI-H838; [7]
  Definition of CBP501 sensitivity: Sensitive (Cell lines that shifted the curve two fold or more were classified as CBP501 sensitive cells)
  Folds increase of CDDP effect by CBP501: 2 fold
Cancer cells [5]
  Uptake of CDDP into cancer cells: increased uptake of CDDP into cancer cells
